Data from US20100104629A1, “CATIONIC LIPIDS AND USES THEREOF” (ABBOTT LABORATORIES, priority 2008, published 2010).

Legend:
[1] = system: β-galactosidase in tumor sections; experiment: IHC analysis of β-galactosidase in intraliver tumors after i.v. dosing of formulated siRNA; format: in vivo, Scid female mice; set-up: key to β-galactosidase IHC staining score, column 1 / β-galactosidase IHC staining score, column 2 / β-galactosidase IHC staining score, column 3 / β-galactosidase IHC staining score, column 4 / β-galactosidase IHC staining score, column 5 / β-galactosidase IHC staining score, column 6: −: there was no staining, a small area of weak staining, or disperse strong single cell staining; +/−: there was 5% of the section with weak staining or one patch of strong staining; +: there was 15% of the section with strong staining; ++: there was ˜50% of the section with strong straining; +++: there was 80% of the section with strong straining; ++++: the whole section had strong staining
Procedure: The animal studies were carried out in accordance with internal Institutional Animal Care and Use Committee (IACUC) guidelines at Abbott Laboratories. Scid female mice at 6 to 8 weeks of age were obtained from Charles River Laboratory and used for intraliver tumor models. Mouse livers were exposed by vertical incision on mouse abdomens and the tumor cells were directly injected into the livers. The incision was closed by suture and wound clips. All cell lines used for creating xenograft tumors were subjected to the IMPACT profile I test (18 agents) at the University of Missouri Research Animal Diagnostic and Investigative Laboratory, and all cell lines were found negative for the 18 infectious agents tested. Tumor cells were suspended in a 1:1 mixture of S-MEM (Invitrogen, Carlsbad, Calif.) and matrigel (BD Bioscience, San Jose, Calif.) and inoculated at 1×10E6 cells per animal.
Treatments were started 3˜4 weeks after tumor inoculation. Formulated or unformulated siRNAs were administrated via tail vein (i.v) injection.
IHC was carried out as previously described [Li, L., et al., Evaluating hypoxia-inducible factor-1alpha as a cancer therapeutic target via inducible RNA interference in vivo. Cancer Res, 2005. 65(16): p. 7249-58]. Briefly, tumors were excised, cut into pieces of less than 3 mm in thickness and immediately fixed in buffered formalin solution with neutral pH (Sigma, St. Louis, Mo.). The formalin-fixed and paraffin-embedded tumor sections were then used for staining The mouse anti-β-galactosidase mAb (Promega, Madison, Wis.) was used to detect β-galactosidase in tumor sections. DAB (3,3′-diaminobenzidine) was used as the chromogen. IHC images were acquired using the Nikon TE2000 inverted microscope. The β-galactosidase staining was evaluated by 2 people independently based on the scoring system listed below. The average of the score was calculated for each tumor.
−, there was no staining, a small area of weak staining, or disperse strong single cell staining +/−, there was 5% of the section with weak staining or one patch of strong staining +, there was 15% of the section with strong staining ++, there was ˜50% of the section with strong straining +++, there was 80% of the section with strong straining ++++, the whole section had strong staining

[2] = system: MDA435-TetR-Luc cells; experiment: Transfection efficiency of MDA435-TetR-Luc cells with Lipid-Based Particles (TetRLuc assay); format: cell-based; conditions: formulation employing the cationic lipid
Procedure: To determine the knockdown efficacy of Lipid-Based Particles in an in vitro assay, MDA435-TetR-Luc cells (The positive readout reporter cell line MDA435-TetR-Luc contained a stably integrated copy of the luciferase gene expressed from a CMV promoter containing the tetR operator site. In addition, gene coding for a destabilized TetR protein was expressed in this cell line.) were plated in 96 well plate at a density of 10K cells per well in 100 ul of DMEM (Dulbecco's Modified Eagles Medium, Invitrogen Corp.) containing 10% fetal bovine serum (Invitrogen Corp.). Appropriate dilutions of Lipid-Based Particles were made in DMEM+10% fetal bovine serum medium, 10 ul of the diluted material was transferred into each well in triplicate. Transfected cells were further incubated at 37° C. for a period of 72 hours. […] The graphs represent average of triplicate readings of the Lipid-Based Particles treated sample divided by the average of readings from 9 wells treated with doxycycline.
The ability of novel cationic lipids to transfect siRNA in vitro was evaluated in the TetRLuc assay. By utilizing a releasable PEG lipid as for examples in formulations “a” or “b”, the transfection efficiency of the unshielded or partially shielded particle may be determined.

C[C@H]1c2cccc(O)c2C(=O)C2=C(O)[C@]3(O)C(=O)C(C(N)=O)=C(O)[C@@H](N(C)C)[C@@H]3[C@@H](O)[C@@H]21 [Doxycycline]
β-galactosidase IHC staining score, column 1 ([1]; intraliver tumor, i.v. tail vein, column 1 of 6 (not further defined)): +++
β-galactosidase IHC staining score, column 2 ([1]; intraliver tumor, i.v. tail vein, column 2 of 6 (not further defined)): +++
β-galactosidase IHC staining score, column 3 ([1]; intraliver tumor, i.v. tail vein, column 3 of 6 (not further defined)): +++
β-galactosidase IHC staining score, column 4 ([1]; intraliver tumor, i.v. tail vein, column 4 of 6 (not further defined)): +++
β-galactosidase IHC staining score, column 5 ([1]; intraliver tumor, i.v. tail vein, column 5 of 6 (not further defined)): +++
β-galactosidase IHC staining score, column 6 ([1]; intraliver tumor, i.v. tail vein, column 6 of 6 (not further defined)): +++

CCCCC/C=C\C/C=C\CCCCCCCCOCC(CN1CCCC1)OCCCCCCCC/C=C\C/C=C\CCCCC (stereo not drawn) [Example 1, 1-(2,3-bis((9Z,12Z)-octadeca-9,12-dienyloxy)propyl)pyrrolidine]
in vivo delivery ([1]; formulation employing the cationic lipid): efficient in vivo delivery
in vitro transfection activity [2]: provided in vitro transfection activity

CCCCC/C=C\C/C=C\CCCCCCCCOCC(CN(CC)CC)OCCCCCCCC/C=C\C/C=C\CCCCC (stereo not drawn) [Example 57, N,N-diethyl-2,3-bis((9Z,12Z)-octadeca-9,12-dienyloxy)propan-1-amine]
in vitro transfection activity [2]: may diminish activity
